{"source": "patent US8509867B2", "about": "“Non-invasive measurement of analytes” (Cercacor Laboratories, Inc., priority 2002, dated 2013)", "origin": "cited, not measured here", "key": {"[1]": {"details": "i.v., rats (Merck)"}}}
{"smiles": "COC(=O)c1ccccc1-c1c2ccc(=N)cc-2oc2cc(N)ccc12", "note": "[Rh123, (2-(6-Amino-3-imino-3H-xanthen-9-yl)benzoic acid methyl ester)]", "values": [{"measurement": "fifty percent lethality (LD50)", "setting": "[1]", "result": 89.5, "unit": "mg/kg"}, {"measurement": "intravenous lethal dose for animals (LD10)", "result": "approximately 20 mg/kg of body weight"}]}
